Test results: ChEMBL document CHEMBL1240367, “Therapy of murine pulmonary aspergillosis with antibody-alliinase conjugates and alliin” (2010)
Converted amounts (≈) assume the structure as drawn.

How the values were obtained:
Format in all cases: functional
Aspergillus fumigatus [1] = experiment: Antifungal activity against Aspergillus fumigatus infected ICR mouse assessed as median survival time at 1 mg/kg, it administered 1 hr post infection repeated on days 4, 6 and 9; settings: route endotracheal
Aspergillus fumigatus [2] = experiment: Antifungal activity against Aspergillus fumigatus infected ICR mouse assessed as median survival time at 750 ug, it administered 1 hr post infection repeated on days 4, 6 and 9
Aspergillus fumigatus [3] = experiment: Antifungal activity against swollen Aspergillus fumigatus
Aspergillus fumigatus [4] = experiment: Antifungal activity against resting Aspergillus fumigatus
Aspergillus fumigatus [5] = experiment: Antifungal activity against Aspergillus fumigatus hyphae

Compound: C[C@@H]1[C@H](O)[C@@H](C)/C=C/C=C/C=C/C=C/C=C/C=C/C=C/[C@H](O[C@@H]2O[C@H](C)[C@@H](O)[C@H](N)[C@@H]2O)C[C@@H]2O[C@](O)(C[C@@H](O)C[C@@H](O)[C@H](O)CC[C@@H](O)C[C@@H](O)CC(=O)O[C@H]1C)C[C@H](O)[C@H]2C(=O)O [AMPHOTERICIN B]
- MST (Aspergillus fumigatus [1]): 18 days

Compound: C=CC[S+]([O-])C[C@H](N)C(=O)O (stereo not given in full) [ALLIIN]
- MST (Aspergillus fumigatus [2]): 7 days

Compound: C=CCS[S+]([O-])CC=C (stereo not given) [ALLICIN]
- MFC (Aspergillus fumigatus [3]): 7.5 µg/mL (≈ 46.2 µM)
- MFC (Aspergillus fumigatus [4]): 15 µg/mL (≈ 92.4 µM)
- MIC (Aspergillus fumigatus [5]): 30 µg/mL (≈ 185 µM)
